According to ChEMBL document CHEMBL1135321, “Tetrahydrothienopyridylbutyl-tetrahydrobenzindoles: new selective ligands of the 5-HT(7) receptor” (Bioorg Med Chem Lett, 2002):
The source made the active and inactive calls. The rule behind the calls is not given here.

How the values were obtained:
[1] = biological target: Serotonin 2 (5-HT2) receptor (Rattus norvegicus, UniProt P30994+P08909+P14842); test: Ability to displace the radioligand [3H]ketanserin from 5-hydroxytryptamine 2 receptor of rat cerebral cortex membrane; type: tissue-based
[2] = biological target: 5-hydroxytryptamine receptor 7 (Homo sapiens, UniProt P34969); test: Ability to displace the radioligand [3H]5-carboxyamidotryptamine ([3H]5-CT) from human 5-hydroxytryptamine 7 receptor expressed in COS-7 cells; type: cell-based
5-hydroxytryptamine receptor 7, sequence (P34969 whole entry): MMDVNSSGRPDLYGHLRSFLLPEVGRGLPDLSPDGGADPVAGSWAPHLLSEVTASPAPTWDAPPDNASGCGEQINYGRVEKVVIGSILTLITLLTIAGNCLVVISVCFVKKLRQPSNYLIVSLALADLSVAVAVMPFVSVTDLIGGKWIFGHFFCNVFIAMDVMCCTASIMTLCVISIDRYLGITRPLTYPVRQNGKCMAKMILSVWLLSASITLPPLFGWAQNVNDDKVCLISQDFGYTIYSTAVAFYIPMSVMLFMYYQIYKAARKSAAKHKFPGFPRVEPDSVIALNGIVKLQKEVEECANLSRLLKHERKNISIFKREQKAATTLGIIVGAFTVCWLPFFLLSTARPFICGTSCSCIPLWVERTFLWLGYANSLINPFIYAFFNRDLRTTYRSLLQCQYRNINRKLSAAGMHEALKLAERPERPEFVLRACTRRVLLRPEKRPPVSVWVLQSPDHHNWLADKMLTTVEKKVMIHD

[3] = biological target: T1, 5-hydroxytryptamine receptor 1A (Homo sapiens, UniProt P08908); test: Ability to displace the radioligand [3H]-8-OH-DPAT from human 5-hydroxytryptamine 1A receptor
T1 sequence (P08908 whole entry): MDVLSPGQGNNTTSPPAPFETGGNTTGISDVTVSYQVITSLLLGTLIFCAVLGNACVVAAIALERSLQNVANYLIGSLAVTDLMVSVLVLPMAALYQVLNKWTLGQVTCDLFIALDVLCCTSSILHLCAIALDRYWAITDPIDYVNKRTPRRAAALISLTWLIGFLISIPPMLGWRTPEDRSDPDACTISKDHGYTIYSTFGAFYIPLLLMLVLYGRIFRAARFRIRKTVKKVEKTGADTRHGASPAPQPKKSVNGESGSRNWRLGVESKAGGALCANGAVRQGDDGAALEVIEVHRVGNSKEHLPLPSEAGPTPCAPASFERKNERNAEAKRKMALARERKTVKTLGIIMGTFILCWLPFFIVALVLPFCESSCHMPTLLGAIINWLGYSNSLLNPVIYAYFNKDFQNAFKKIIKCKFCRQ

[4] = biological target: T2, 5-hydroxytryptamine receptor 1B (Rattus norvegicus, UniProt P28564); test: Ability to displace the radioligand [125I](-)-iodocyanopindolol from rat striatal 5-hydroxytryptamine 1B receptor
T2 sequence (P28564 whole entry): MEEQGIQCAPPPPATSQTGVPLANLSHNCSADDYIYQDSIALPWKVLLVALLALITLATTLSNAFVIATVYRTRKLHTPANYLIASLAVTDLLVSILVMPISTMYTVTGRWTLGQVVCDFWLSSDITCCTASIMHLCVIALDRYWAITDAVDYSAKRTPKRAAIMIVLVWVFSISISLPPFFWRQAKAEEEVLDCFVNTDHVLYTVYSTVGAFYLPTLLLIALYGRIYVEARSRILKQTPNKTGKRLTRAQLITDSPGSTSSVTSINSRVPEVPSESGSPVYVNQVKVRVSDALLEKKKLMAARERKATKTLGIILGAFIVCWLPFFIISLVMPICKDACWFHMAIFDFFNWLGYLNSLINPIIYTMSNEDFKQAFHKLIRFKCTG

[5] = biological target: T3, Serotonin 3 receptor (5HT3) (Mus musculus, UniProt Q9JHJ5+P23979); test: Ability to displace the radioligand [3H]GR-65630 from 5-hydroxytryptamine 3 receptor expressed in NIE-115 cells; type: cell-based
T3 sequence (Q9JHJ5 whole entry): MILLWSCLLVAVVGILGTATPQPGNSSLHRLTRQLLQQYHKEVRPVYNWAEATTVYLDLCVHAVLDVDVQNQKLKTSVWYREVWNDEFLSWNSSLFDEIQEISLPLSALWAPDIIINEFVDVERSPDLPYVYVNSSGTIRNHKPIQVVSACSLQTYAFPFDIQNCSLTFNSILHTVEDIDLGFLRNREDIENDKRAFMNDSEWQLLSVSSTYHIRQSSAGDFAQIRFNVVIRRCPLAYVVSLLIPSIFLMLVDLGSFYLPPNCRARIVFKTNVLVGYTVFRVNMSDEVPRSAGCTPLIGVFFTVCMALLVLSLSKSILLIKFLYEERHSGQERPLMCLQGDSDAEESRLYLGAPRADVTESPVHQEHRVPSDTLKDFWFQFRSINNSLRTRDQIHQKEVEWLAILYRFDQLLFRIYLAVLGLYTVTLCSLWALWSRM
T3 sequence (P23979 whole entry): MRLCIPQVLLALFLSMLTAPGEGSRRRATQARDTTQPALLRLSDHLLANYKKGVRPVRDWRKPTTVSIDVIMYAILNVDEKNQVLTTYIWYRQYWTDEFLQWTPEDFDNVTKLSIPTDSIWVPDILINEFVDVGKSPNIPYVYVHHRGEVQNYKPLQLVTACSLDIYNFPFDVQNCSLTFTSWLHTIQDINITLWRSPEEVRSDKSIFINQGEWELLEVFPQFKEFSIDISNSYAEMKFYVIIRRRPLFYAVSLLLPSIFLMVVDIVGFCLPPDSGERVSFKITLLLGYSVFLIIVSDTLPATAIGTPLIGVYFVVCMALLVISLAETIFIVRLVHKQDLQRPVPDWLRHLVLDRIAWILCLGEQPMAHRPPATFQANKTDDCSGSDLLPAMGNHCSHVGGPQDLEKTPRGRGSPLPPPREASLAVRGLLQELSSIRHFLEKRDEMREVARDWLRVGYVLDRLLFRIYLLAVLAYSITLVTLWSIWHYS

[6] = biological target: T4, 5-hydroxytryptamine receptor 4 (Cavia porcellus, UniProt O70528); test: Ability to displace the radioligand [3H]GR-113808 from guinea pig striatum 5-hydroxytryptamine 4 receptor
T4 sequence (O70528 whole entry): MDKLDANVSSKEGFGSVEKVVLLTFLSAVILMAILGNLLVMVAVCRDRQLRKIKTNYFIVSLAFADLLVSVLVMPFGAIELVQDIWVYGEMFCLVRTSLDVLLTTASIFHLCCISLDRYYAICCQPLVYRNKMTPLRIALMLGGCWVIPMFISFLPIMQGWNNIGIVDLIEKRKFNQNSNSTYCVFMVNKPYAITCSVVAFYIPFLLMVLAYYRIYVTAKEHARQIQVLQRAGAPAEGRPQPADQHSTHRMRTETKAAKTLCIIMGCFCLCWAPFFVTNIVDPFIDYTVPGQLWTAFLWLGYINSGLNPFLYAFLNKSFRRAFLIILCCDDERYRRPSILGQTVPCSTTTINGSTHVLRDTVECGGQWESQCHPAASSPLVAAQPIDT

HEK293 = test: Influence on 5-HT-induced stimulation of cAMP accumulation in HEK 293 cells; NS is not Stimulated; type: functional, cell-based; details: Homo sapiens
[7] = biological target: 5-hydroxytryptamine receptor 6 (Homo sapiens, UniProt P50406); test: Ability to displace the radioligand [3H]LSD from human 5-hydroxytryptamine 6 receptor
5-hydroxytryptamine receptor 6, sequence (P50406 whole entry): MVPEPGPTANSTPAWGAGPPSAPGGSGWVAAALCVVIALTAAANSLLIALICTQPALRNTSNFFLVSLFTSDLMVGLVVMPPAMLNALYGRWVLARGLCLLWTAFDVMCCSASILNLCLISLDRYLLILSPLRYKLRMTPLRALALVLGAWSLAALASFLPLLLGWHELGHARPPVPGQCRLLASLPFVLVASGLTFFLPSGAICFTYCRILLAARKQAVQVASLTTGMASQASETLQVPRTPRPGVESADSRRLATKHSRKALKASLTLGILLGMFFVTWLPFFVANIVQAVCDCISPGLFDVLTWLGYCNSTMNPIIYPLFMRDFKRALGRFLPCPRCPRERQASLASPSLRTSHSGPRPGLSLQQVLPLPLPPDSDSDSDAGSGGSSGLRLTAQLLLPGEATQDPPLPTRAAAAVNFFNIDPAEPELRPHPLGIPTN

[8] = biological target: T4, 5-hydroxytryptamine receptor 4; test: Ability to displace the radioligand [3H]GR-113808 from guinea pig striatum 5-HT4 receptor
[9] = biological target: T2, 5-hydroxytryptamine receptor 1B; test: Ability to displace the radioligand [125I](-)-iodocyanopindolol from rat striatal 5-HT1B receptor

Row | SMILES | Log Ki [1] | Ki [2] [µM] | further results
1 | CCN1C(=O)C2(CCCCN3CCc4sccc4C3)CCCc3cccc1c32 (centres undefined) | -6.31 | 0.174 | 
2 | O=C1Nc2cccc3c2C1(CCCCN1CCc2[nH]cnc2C1)CCC3 (centres undefined) | < -6 | 0.562 | 
3 | O=C1Nc2cccc3c2C1(CCCN1CCc2ccccc2C1)CCC3 (centres undefined) | -6.31 | 0.00832 | 
4 | O=C1Nc2cccc3c2C1(CCCCN1CCc2n[nH]cc2C1)CCC3 (centres undefined) | < -6 | 0.813 | 
5 | O=C1Nc2cccc3c2C1(CCCCCN1CCc2ccccc2C1)CCC3 (centres undefined) | -6.16 | 0.0126 | 
6 | O=C1Nc2cccc3c2C1(CCCCN1CCc2ccccc2C1)CCC3 (centres undefined) | -6.21 | 0.00447 | 
7 | O=C1Nc2cccc3c2C1(CCCCN1CCc2sccc2C1)CCC3 (centres undefined) | -6.08 | 0.00646 | Ki [3]: 0.513 µM; Ki [4]: > 1 µM; Log Ki [5]: < -6; Ki [6]: > 1 µM; Activity (HEK293): inactive; Ki [7]: > 1 µM
8 | CN1C(=O)C2(CCCCN3CCc4sccc4C3)CCCc3cccc1c32 (centres undefined) | -6.02 | 0.00977 | Ki [3]: 0.776 µM; Log Ki [5]: < -6; Ki [8]: > 1 µM; Ki [7]: > 1 µM; Ki [9]: > 1 µM
9 | O=C1Nc2cccc3c2C1(CCCCN1CCc2occc2C1)CCC3 (centres undefined) | < -6 | 0.0158 | 
